Assay results taken from US20250206732A1, “COMPOUNDS AND METHODS FOR THE TARGETED DEGRADATION OF KRAS” (Arvinas Operations, Inc., priority 2022, published 2025).

Biological target: T1, AsPC-1 HiBiT-KRASG12D (Homo sapiens, UniProt P01116, G12D)
T1 construct: insert the HiBiT tag onto the N-terminus of one or more of the endogenous KRAS alleles; endogenous in cells; host or cells: AsPC-1 (ATCC CRL-1682), CRISPR-Cas9 knock-in clone, one tagged allele
Test: HiBiT degradation assay (G12D), AsPC-1 HiBiT-KRASG12D cells
Type: cell-based
Settings: 24 hours treatment; for Dmax: ASPC1, AsPC-1 HiBiT-KRASG12D cells, maximum degradation observed; for DC50: AsPC-1 HiBiT-KRASG12D cells, HiBiT luminescence
Summary of the method: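 AsPC-1 cells carried a CRISPR knock-in of an N-terminal HiBiT tag on endogenous KRAS G12D. After 24 h compound treatment at 37 °C (triplicate), viability was read by alamar blue (4 h, fluorescence, normalized to DMSO). HiBiT-KRAS levels were then measured by Nano-Glo HiBiT lytic luminescence after 45 min at room temperature.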

T1 sequence (P01116 1-188 isoform P01116-2 G12D): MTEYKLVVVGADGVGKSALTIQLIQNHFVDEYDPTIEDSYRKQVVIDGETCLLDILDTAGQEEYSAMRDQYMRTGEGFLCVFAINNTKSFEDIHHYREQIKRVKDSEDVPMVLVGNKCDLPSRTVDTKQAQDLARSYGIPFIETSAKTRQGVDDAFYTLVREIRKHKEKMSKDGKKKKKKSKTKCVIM

Row | SMILES | Dmax [%] | DC50 [nM]
1 | CCc1cccc2cccc(-c3ncc4c(N5CC6CCC(C5)N6)nc(OC[C@]56CCCN5[C@H](COC(=O)N5CCN(c7cc([C@H](C(=O)N8C[C@H](O)C[C@H]8C(=O)N[C@@H](C)c8ccc(-c9scnc9C)cc8)C(C)C)on7)CC5)CC6)nc4c3F)c12 [Compound 57] | 60 to 80 | < 600
2 | C#Cc1c(F)ccc2cc(O)cc(-c3ncc4c(N5CC6CCC(C5)N6)nc(OC[C@@]56CCCN5[C@H](COC(=O)N5CCN(c7cc([C@H](C(=O)N8C[C@H](O)C[C@H]8C(=O)N[C@@H](C)c8ccc(-c9scnc9C)cc8)C(C)C)on7)CC5)CC6)nc4c3F)c12 [Compound 58, [(3S,7aS)-7a-{[(4-{3,8-diazabicyclo[3.2.1]octan-3-yl}-7-(8-ethynyl-7-fluoro-3-hydroxynaphthalen-1-yl)-8-fluoropyrido[4,3-d]pyrimidin-2-yl)oxy]methyl}-hexahydro-1H-pyrrolizin-3-yl]methyl 4-{5-[(2R)-1-[(2S,4R)-4-hydroxy-2-{[(1S)-1-[4-(4-methyl-1,3-thiazol-5-yl)phenyl]ethyl]carbamoyl}pyrrolidin-1-yl]-3-methyl-1-oxobutan-2-yl]-1,2-oxazol-3-yl}piperazine-1-carboxylate] | 80 to 100 | < 600
3 | C#Cc1c(F)ccc2cc(O)cc(-c3ncc4c(N5CC6CCC(C5)N6)nc(OC[C@@H]5CC[C@@H](COC(=O)N6CCN(c7cc([C@H](C(=O)N8C[C@H](O)C[C@H]8C(=O)N[C@@H](C)c8ccc(-c9scnc9C)cc8)C(C)C)on7)CC6)N5C)nc4c3F)c12 [Compound 59, [(2S,5S)-5-{[(4-{3,8-diazabicyclo[3.2.1]octan-3-yl}-7-(8-ethynyl-7-fluoro-3-hydroxynaphthalen-1-yl)-8-fluoropyrido[4,3-d]pyrimidin-2-yl)oxy]methyl}-1-methylpyrrolidin-2-yl]methyl 4-{5-[(2R)-1-[(2S,4R)-4-hydroxy-2-{[(1S)-1-[4-(4-methyl-1,3-thiazol-5-yl)phenyl]ethyl]carbamoyl}pyrrolidin-1-yl]-3-methyl-1-oxobutan-2-yl]-1,2-oxazol-3-yl}piperazine-1-carboxylate] | 80 to 100 | < 600
4 | Cc1ncsc1-c1ccc([C@H](C)NC(=O)[C@@H]2C[C@@H](O)CN2C(=O)[C@@H](c2cc(OCC3CCN(CCOc4nc(N5CC6CCC(C5)N6)c5cnc(-c6cc(O)cc7cccc(C)c67)c(F)c5n4)CC3)no2)C(C)C)cc1 [Compound 60, (2S,4R)-1-[(2R)-2-{3-[(1-{2-[(4-{3,8-diazabicyclo[3.2.1]octan-3-yl}-8-fluoro-7-(3-hydroxy-8-methylnaphthalen-1-yl)pyrido[4,3-d]pyrimidin-2-yl)oxy]ethyl}piperidin-4-yl)methoxy]-1,2-oxazol-5-yl}-3-methylbutanoyl]-4-hydroxy-N-[(1S)-1-[4-(4-methyl-1,3-thiazol-5-yl)phenyl]ethyl]pyrrolidine-2-carboxamide] | 60 to 80 | < 600
5 | Cc1ncsc1-c1ccc([C@H](C)NC(=O)[C@@H]2C[C@@H](O)CN2C(=O)[C@@H](c2cc(OC[C@@H]3CC[C@]4(COc5nc(N6CC7CCC(C6)N7)c6cnc(-c7cccc8ccc(F)c(F)c78)c(F)c6n5)CCCN34)no2)C(C)C)cc1 [Compound 61, (2S,4R)-1-[(2R)-2-(3-{[(3S,7aS)-7a-{[(4-{3,8-diazabicyclo[3.2.1]octan-3-yl}-7-(7,8-difluoronaphthalen-1-yl)-8-fluoropyrido[4,3-d]pyrimidin-2-yl)oxy]methyl}-hexahydro-1H-pyrrolizin-3-yl]methoxy}-1,2-oxazol-5-yl)-3-methylbutanoyl]-4-hydroxy-N-[(1S)-1-[4-(4-methyl-1,3-thiazol-5-yl)phenyl]ethyl]pyrrolidine-2-carboxamide] | 80 to 100 | < 600
6 | Cc1ncsc1-c1ccc([C@H](C)NC(=O)[C@@H]2C[C@@H](O)CN2C(=O)[C@H](c2cc(OC[C@@H]3CC[C@]4(COc5nc(N6CC7CCC(C6)N7)c6cnc(-c7cccc8ccc(F)c(F)c78)c(F)c6n5)CCCN34)no2)C(C)C)cc1 [Compound 62, (2S,4R)-1-[(2S)-2-(3-{[(3S,7aS)-7a-{[(4-{3,8-diazabicyclo[3.2.1]octan-3-yl}-7-(7,8-difluoronaphthalen-1-yl)-8-fluoropyrido[4,3-d]pyrimidin-2-yl)oxy]methyl}-hexahydro-1H-pyrrolizin-3-yl]methoxy}-1,2-oxazol-5-yl)-3-methylbutanoyl]-4-hydroxy-N-[(1S)-1-[4-(4-methyl-1,3-thiazol-5-yl)phenyl]ethyl]pyrrolidine-2-carboxamide] |  | > 3000
7 | Cc1ncsc1-c1ccc([C@H](C)NC(=O)[C@@H]2C[C@@H](O)CN2C(=O)[C@@H](c2cc(OC[C@@H]3CC[C@]4(COc5nc(N6CC7CCC(C6)N7)c6cnc(-c7cc(O)cc(Cl)c7C7CC7)c(F)c6n5)CCCN34)no2)C(C)C)cc1 [Compound 64, (2S,4R)-1-[(2R)-2-(3-{[(3S,7aS)-7a-({[7-(3-chloro-2-cyclopropyl-5-hydroxyphenyl)-4-{3,8-diazabicyclo[3.2.1]octan-3-yl}-8-fluoropyrido[4,3-d]pyrimidin-2-yl]oxy}methyl)-hexahydro-1H-pyrrolizin-3-yl]methoxy}-1,2-oxazol-5-yl)-3-methylbutanoyl]-4-hydroxy-N-[(1S)-1-[4-(4-methyl-1,3-thiazol-5-yl)phenyl]ethyl]pyrrolidine-2-carboxamide] | 20 to 60 | < 600
8 | Cc1ncsc1-c1ccc([C@H](C)NC(=O)[C@@H]2C[C@@H](O)CN2C(=O)[C@H](c2cc(OC[C@@H]3CC[C@]4(COc5nc(N6CC7CCC(C6)N7)c6cnc(-c7cc(O)cc(Cl)c7C7CC7)c(F)c6n5)CCCN34)no2)C(C)C)cc1 [Compound 65, (2S,4R)-1-[(2S)-2-(3-{[(3S,7aS)-7a-({[7-(3-chloro-2-cyclopropyl-5-hydroxyphenyl)-4-{3,8-diazabicyclo[3.2.1]octan-3-yl}-8-fluoropyrido[4,3-d]pyrimidin-2-yl]oxy}methyl)-hexahydro-1H-pyrrolizin-3-yl]methoxy}-1,2-oxazol-5-yl)-3-methylbutanoyl]-4-hydroxy-N-[(1S)-1-[4-(4-methyl-1,3-thiazol-5-yl)phenyl]ethyl]pyrrolidine-2-carboxamide] | < 20 | 1000 to 3000
9 | CCc1cccc2cc(O)cc(-c3ncc4c(N5CC6CCC(C5)N6)nc(OC[C@]56CCCN5[C@H](COC(=O)N5CCN(c7cc([C@H](C(=O)N8C[C@H](O)C[C@H]8C(=O)N[C@@H](C)c8ccc(C#N)cc8)C(C)C)on7)CC5)CC6)nc4c3F)c12 [Compound 66, [(3S,7aR)-7a-{[(4-{3,8-diazabicyclo[3.2.1]octan-3-yl}-7-(8-ethyl-3-hydroxynaphthalen-1-yl)-8-fluoropyrido[4,3-d]pyrimidin-2-yl)oxy]methyl}-hexahydro-1H-pyrrolizin-3-yl]methyl 4-{5-[(2R)-1-[(2S,4R)-2-{[(1S)-1-(4-cyanophenyl)ethyl]carbamoyl}-4-hydroxypyrrolidin-1-yl]-3-methyl-1-oxobutan-2-yl]-1,2-oxazol-3-yl}piperazine-1-carboxylate] | 60 to 80 | < 600
10 | CCc1cccc2cc(O)cc(-c3ncc4c(N5CC6CCC(C5)N6)nc(OC[C@]56CCCN5[C@H](COC(=O)N5CCN(c7cc([C@@H](C(=O)N8C[C@H](O)C[C@H]8C(=O)N[C@@H](C)c8ccc(C#N)cc8)C(C)C)on7)CC5)CC6)nc4c3F)c12 [Compound 67, [(3S,7aR)-7a-{[(4-{3,8-diazabicyclo[3.2.1]octan-3-yl}-7-(8-ethyl-3-hydroxynaphthalen-1-yl)-8-fluoropyrido[4,3-d]pyrimidin-2-yl)oxy]methyl}-hexahydro-1H-pyrrolizin-3-yl]methyl 4-{5-[(2S)-1-[(2S,4R)-2-{[(1S)-1-(4-cyanophenyl)ethyl]carbamoyl}-4-hydroxypyrrolidin-1-yl]-3-methyl-1-oxobutan-2-yl]-1,2-oxazol-3-yl}piperazine-1-carboxylate] |  | > 3000
11 | CCc1cccc2cc(O)cc(-c3ncc4c(N5CC6CCC(C5)N6)nc(OCCN5CCC(CC6CN(c7cc([C@H](C(=O)N8C[C@H](O)C[C@H]8C(=O)N[C@@H](C)c8ccc(-c9scnc9C)cc8)C(C)C)on7)C6)CC5)nc4c3F)c12 [Compound 81, (2S,4R)-1-[(2R)-2-(3-{3-[(1-{2-[(4-{3,8-diazabicyclo[3.2.1]octan-3-yl}-7-(8-ethyl-3-hydroxynaphthalen-1-yl)-8-fluoropyrido[4,3-d]pyrimidin-2-yl)oxy]ethyl}piperidin-4-yl)methyl]azetidin-1-yl}-1,2-oxazol-5-yl)-3-methylbutanoyl]-4-hydroxy-N-[(1S)-1-[4-(4-methyl-1,3-thiazol-5-yl)phenyl]ethyl]pyrrolidine-2-carboxamide] | 80 to 100 | < 600
12 | CCc1cccc2cc(O)cc(-c3ncc4c(N5CC6CCC(C5)N6)nc(OC[C@]56CCCN5[C@H](COC(=O)N5CCN(c7cc([C@@H](C(=O)N8C[C@H](O)C[C@H]8C(=O)N[C@@H](C)c8ccc(-c9scnc9C)cc8)C(C)C)on7)CC5)CC6)nc4c3F)c12 [Compound 87, [(3S,7aR)-7a-{[(4-{3,8-diazabicyclo[3.2.1]octan-3-yl}-7-(8-ethyl-3-hydroxynaphthalen-1-yl)-8-fluoropyrido[4,3-d]pyrimidin-2-yl)oxy]methyl}-hexahydro-1H-pyrrolizin-3-yl]methyl 4-{5-[(2S)-1-[(2S,4R)-4-hydroxy-2-{[(1S)-1-[4-(4-methyl-1,3-thiazol-5-yl)phenyl]ethyl]carbamoyl}pyrrolidin-1-yl]-3-methyl-1-oxobutan-2-yl]-1,2-oxazol-3-yl}piperazine-1-carboxylate] | 20 to 60 | 600 to 1000
